This note sets out measurements from patent US20100292214A1, “Compounds with Antiparasitic Activity, Applications thereof to the Treatment of Infectious Diseases Caused by Apicomplexans” (commissariat a l'Energie Atomique, priority 2007, published 2010).

Where a name gives a salt, the structure may show the parent alone.

The subject of one assay is asynchronous 3D7 chloroquine-sensitive P. falciparum infected red blood cells. As to the kind of experiment: Labeled hypoxanthine incorporation assay (in vitro anti-malarial activity). Format: cell-based. The settings on record: 3D7 chloroquine-sensitive strain, infected RBC, 48 h contact, [3H]-hypoxanthine incorporation; two independent experiments in duplicates; read-out: IC50 assessed on Plasmodium Falciparum.
By IC50 is commonly meant the point on the concentration scale where inhibition reaches its midpoint. Regarding `C[C@@H](COC(=O)N1CCC(n2c(=O)[nH]c3ccccc32)CC1)N(Cc1ccccc1)Cc1ccc(Br)cc1` [Compound 116, S)-2-(benzyl(4-bromobenzyl)amino)propyl 4-(2-oxo-2,3-dihydro-1H-benzo[d]imidazol-1-yl)piperidine-1-carboxylate hydrochloride], the IC50 is 2.88 µM.

Staying with this assay, now noted: Plasmodium falciparum, 3D7, Erythrocyte, 3D7 chloroquine-sensitive strain, infected RBC, 48 h contact, [3H]-hypoxanthine incorporation; two independent experiments in duplicates; read-out: IC50 assessed on Plasmodium Falciparum.
In the case of `C[C@@H](COC(=O)N1CCC(n2c(=O)[nH]c3ccccc32)CC1)N(Cc1ccccc1)Cc1ccc([N+](=O)[O-])cc1` [Compound 113, (S)-2-(benzyl(4-nitrobenzyl)amino)propyl 4-(2-oxo-2,3-dihydro-1H-benzo[d]imidazol-1-yl)piperidine-1-carboxylate], the half-inhibitory concentration (IC50) worked out at 2.45 µM.

Turning to `Cc1cccc(C)c1NC1CCN(C(=O)OC[C@H](Cc2ccccc2)N(Cc2ccccc2)Cc2ccccc2)CC1` [Compound 174, (S)-2-(dibenzylamino)-3-phenylpropyl 4-(2,6-dimethylphenylamino)piperidine-1-carboxylate], the IC50 turned out to be 0.913 µM.

Consider `CCCc1ccc(S(=O)(=O)N(c2ccccc2)C2CCN(C(=O)OC[C@H](C)N(Cc3ccccc3)Cc3ccccc3)CC2)cc1` [Compound 154, (S)-2-(dibenzylamino)propyl 4-(N-phenyl-4-propylphenylsulfonamido)piperidine-1-carboxylate], for which the IC50 came to 1.59 µM.

For the compound `C[C@@H](COC(=O)N1CCC(n2c(=O)[nH]c3ccccc32)CC1)N(Cc1ccccc1)Cc1ccc(Cl)cc1` [Compound 129, (S)-2-(benzyl(4-chlorobenzyl)amino)propyl 4-(2-oxo-2,3-dihydro-1H-benzo[d]imidazol-1-yl)piperidine-1-carboxylate hydrochloride], the IC50 came to 3.63 µM.

`O=C(OCCN(Cc1ccccc1)Cc1ccc(OCc2ccccc2)cc1)N1CCC(n2c(=O)[nH]c3ccccc32)CC1` [Compound 100, 2-(benzyl(4-(benzyloxy)benzyl)amino)ethyl 4-(2-oxo-2,3-dihydro-1H-benzo[d]imidazol-1-yl)piperidine-1-carboxylate]: the IC50 is 3.15 µM.

For the compound `O=C(OCCCN(CCCc1ccccc1)Cc1ccccc1)N1CCC(n2c(=O)[nH]c3ccccc32)CC1` [Compound 148, 3-(benzyl(3-phenylpropyl)amino)propyl 4-(2-oxo-2,3-dihydro-1H-benzo[d]imidazol-1-yl)piperidine-1-carboxylate hydrochloride], the IC50 was 4.61 µM.

In the case of `O=C(OCCN(Cc1ccccc1)Cc1cccc(OCc2ccccc2)c1)N1CCC(n2c(=O)[nH]c3ccccc32)CC1` [Compound 103, 2-(benzyl(3-(benzyloxy)benzyl)amino)ethyl 4-(2-oxo-2,3-dihydro-1H-benzo[d]imidazol-1-yl)piperidine-1-carboxylate], the IC50 turned out to be 3.57 µM.

Turning to `C[C@@H](COC(=O)N1CCC(n2c(=O)n(S(=O)(=O)c3cccc4cccnc34)c3ccccc32)CC1)N(Cc1ccccc1)Cc1ccccc1` [Compound 60, (S)-2-(dibenzylamino)propyl 4-(2-oxo-3-(quinolin-8-ylsulfonyl)-2,3-dihydro-1H-benzo[d]imidazol-1-yl)piperidine-1-carboxylate], the IC50 was 0.78 µM.

Regarding `C[C@@H](COC(=O)N1CCC(N(C)c2ccccc2)CC1)N(Cc1ccccc1)Cc1ccccc1` [Compound 166, (S)-2-(dibenzylamino)propyl 4-(N-methyl-N-phenylamino)piperidine-1-carboxylate], the half-inhibitory concentration (IC50) came to 3.69 µM.

For the compound `CC(C)[C@@H](COC(=O)N1CCC(n2c(=O)[nH]c3ccccc32)CC1)N(Cc1ccccc1)Cc1ccccc1` [Compound 107, (S)-2-(dibenzylamino)-3-methylbutyl 4-(1,2-dihydro-2-oxobenzo[d]imidazol-3-yl)piperidine-1-carboxylate], the IC50 was determined as 2.81 µM.

Consider `C[C@@H](COC(=O)N1CCC(N(c2ccccc2)S(=O)(=O)c2ccc(-c3ccccc3)cc2)CC1)N(Cc1ccccc1)Cc1ccccc1` [Compound 170, (S)-2-(dibenzylamino)propyl 4-(N-phenyl-biphenyl-4-sulfonamido)piperidine-1-carboxylate], for which the IC50 came to 2.2 µM.

On to `C[C@@H](COC(=O)N1CCC(Nc2ccccc2S(=O)(=O)c2ccccc2)CC1)N(Cc1ccccc1)Cc1ccccc1` [Compound 164, (S)-2-(dibenzylamino)propyl 4-(2-(phenylsulfonyl)phenylamino)piperidine-1-carboxylate], for which the IC50 was determined as 1.26 µM.

For `O=C(OCCCN(Cc1ccccc1)Cc1cccnc1)N1CCC(n2c(=O)[nH]c3ccccc32)CC1` [Compound 134, 3-(benzyl(pyridin-3-ylmethyl)amino)propyl 4-(2-oxo-2,3-dihydro-1H-benzo[d]imidazol-1-yl)piperidine-1-carboxylate hydrochloride], the IC50 worked out at 1.29 µM.

Turning to `O=C(OCCCN(CCOCc1ccccc1)Cc1ccccc1)N1CCC(n2c(=O)[nH]c3ccccc32)CC1` [Compound 143, 3-(benzyl(2-(benzyloxy)ethyl)amino)propyl 4-(2-oxo-2,3-dihydro-1H-benzo[d]imidazol-1-yl)piperidine-1-carboxylate hydrochloride], the IC50 was 4.27 µM.

For the compound `O=C(OCCN(Cc1ccccc1)Cc1cccc(Cl)c1)N1CCC(n2c(=O)[nH]c3ccccc32)CC1` [Compound 124, 2-(benzyl(3-chlorobenzyl)amino)ethyl 4-(2-oxo-2,3-dihydro-1H-benzo[d]imidazol-1-yl)piperidine-1-carboxylate hydrochloride], the half-inhibitory concentration (IC50) was determined as 3.31 µM.

Regarding `C[C@@H](COC(=O)N1CCC(N(c2ccccc2)S(=O)(=O)c2ccc(C(F)(F)F)cc2)CC1)N(Cc1ccccc1)Cc1ccccc1` [Compound 158, (S)-2-(dibenzylamino)propyl 4-(N-phenyl-4-(trifluoromethyl)phenylsulfonamido)piperidine-1-carboxylate], the IC50 amounted to 0.355 µM.

As for `CC(C)(C)OC(=O)N(Cc1ccccc1)[C@H](COC(=O)N1CCC(n2c(=O)[nH]c3ccccc32)CC1)Cc1ccccc1` [Compound 106, (S)-2-(benzyl(tert-butoxycarbonyl)amino)-3-phenylpropyl 4-(2-oxo-2,3-dihydro-1H-benzo[d]imidazol-1-yl)piperidine-1-carboxylate], the IC50 was 0.828 µM.

Regarding `C[C@@H](COC(=O)N1CCC(Nc2ccccc2Sc2ccc(Cl)cc2)CC1)N(Cc1ccccc1)Cc1ccccc1` [Compound 173, (S)-2-(dibenzylamino)propyl 4-(2-(4-chlorophenylthio)phenylamino)piperidine-1-carboxylate], the IC50 worked out at 2.58 µM.

Turning to `COc1ccccc1CN(CCOC(=O)N1CCC(n2c(=O)[nH]c3ccccc32)CC1)Cc1ccccc1` [Compound 151, 2-(benzyl(2-methoxybenzyl)amino)ethyl 4-(2-oxo-2,3-dihydro-1H-benzo[d]imidazol-1-yl)piperidine-1-carboxylate], the IC50 worked out at 4.66 µM.

Turning to `C[C@@H](COC(=O)N1CCC(n2c(=O)[nH]c3ccccc32)CC1)N(Cc1ccccc1)Cc1ccco1` [Compound 102, (S)-2-(benzyl(furan-2-ylmethyl)amino)propyl 4-(2-oxo-2,3-dihydro-1H-benzo[d]imidazol-1-yl)piperidine-1-carboxylate], the IC50 came out at 7.47 µM.

As for `CCc1cccc(CC)c1NC1CCN(C(=O)OC[C@H](Cc2ccccc2)N(Cc2ccccc2)Cc2ccccc2)CC1` [Compound 175, (S)-2-(dibenzylamino)-3-phenylpropyl 4-(2,6-diethylphenylamino)piperidine-1-carboxylate], the IC50 was found to be 2.6 µM.

Turning to `C[C@@H](COC(=O)N1CCC(N(c2ccccc2)S(=O)(=O)c2cccc3ccccc23)CC1)N(Cc1ccccc1)Cc1ccccc1` [Compound 161, (S)-2-(dibenzylamino)propyl 4-(N-phenyl-naphthalen-1-ylsulfonamido)piperidine-1-carboxylate], the IC50 is 0.29 µM.

`COc1ccc(S(=O)(=O)N(c2ccccc2)C2CCN(C(=O)OC[C@H](Cc3ccccc3)N(Cc3ccccc3)Cc3ccccc3)CC2)cc1` [Compound 157, (S)-2-(dibenzylamino)-3-phenylpropyl 4-(N-phenyl-4-methoxyphenylsulfonamido)piperidine-1-carboxylate]: the IC50 is 0.828 µM.

As to `C[C@@H]1CC[C@H]2[C@@H](C)C(=O)O[C@@H]3O[C@@]4(C)CC[C@@H]1[C@]32OO4` [Artemisinine, reference compound], the IC50 worked out at 0.0287 µM.

As to `CC(C)(COC(=O)N1CCC(n2c(=O)[nH]c3ccccc32)CC1)N(Cc1ccccc1)Cc1ccccc1` [Compound 111, 2-(dibenzylamino)-2-methylpropyl 4-(1,2-dihydro-2-oxobenzo[d]imidazol-3-yl)piperidine-1-carboxylate], the IC50 is 2.28 µM.

As for `O=C(OC[C@H](Cc1ccccc1)N(Cc1ccccc1)Cc1ccccc1)N1CCC(N(c2ccccc2)S(=O)(=O)c2cccc3ccccc23)CC1` [Compound 162, (S)-2-(dibenzylamino)-3-phenylpropyl 4-(N-phenyl-naphthalen-1-ylsulfonamido)piperidine-1-carboxylate], the half-inhibitory concentration (IC50) was found to be 1.33 µM.

`O=C(OCCN(Cc1ccccc1)Cc1cccc2ccccc12)N1CCC(n2c(=O)[nH]c3ccccc32)CC1` [Compound 130, 2-(benzyl(naphthalen-1-ylmethyl)amino)ethyl 4-(2-oxo-2,3-dihydro-1H-benzo[d]imidazol-1-yl)piperidine-1-carboxylate hydrochloride]: the IC50 worked out at 3.87 µM.

On to `C[C@@H](COC(=O)N1CCC(n2c(=O)[nH]c3ccccc32)CC1)N(Cc1ccccc1)Cc1cccc(Oc2ccccc2)c1` [Compound 127, (S)-2-(benzyl(3-phenoxybenzyl)amino)propyl 4-(2-oxo-2,3-dihydro-1H-benzo[d]imidazol-1-yl)piperidine-1-carboxylate hydrochloride], for which the IC50 was 2.67 µM.

Staying with this assay, now noted: Plasmodium falciparum, 3D7, Erythrocyte, read-out: IC50 assessed on Plasmodium Falciparum.
Regarding `CCN(CC)CCCC(C)Nc1ccnc2cc(Cl)ccc12` (stereo not shown) [Chloroquine, reference compound], the IC50 was determined as 0.0103 µM.

`C[C@H]1[C@H](OC(=O)CCC(=O)O)O[C@@H]2O[C@@]3(C)CC[C@H]4[C@H](C)CC[C@@H]1[C@@]24OO3` [Artesunate, reference compound]: the IC50 came out at 0.0097 µM.
